The values below come from US8460904B2, “Method of producing reduced coenzyme Q10” (Zhejiang Zhongning Business Co., Ltd., priority 2008, dated 2013).

The nature of series [1]: Water-solubility after phosphorylation. It is filed as physicochemical. The following applies: usable on injection.
The nature of series [2]: Stability / shelf life of the obtained reduced coenzyme Q10. The class given is physicochemical.

SMILES strings stand for the structures.

Consider `COc1c(O)c(C)c(C/C=C(\C)CC/C=C(\C)CC/C=C(\C)CC/C=C(\C)CC/C=C(\C)CC/C=C(\C)CC/C=C(\C)CC/C=C(\C)CC/C=C(\C)CCC=C(C)C)c(O)c1OC` [reduced coenzyme Q10], for which the water-solubility result in series [1] is listed as “completely water soluble”. Also, the shelf life result in series [2] (below 50° C.) was “over 2 years”. Besides, the “stability in phosphoric acid solution” value in series [2] (phosphoric acid solution of pH6.0-8.2) is “remains its qualities”.
